biological target: T1, Endothelin-converting enzyme 1 (Homo sapiens, UniProt P42892); experiment: Inhibition of human recombinant Endothelin-converting enzyme 1.
T1 sequence (P42892 whole entry): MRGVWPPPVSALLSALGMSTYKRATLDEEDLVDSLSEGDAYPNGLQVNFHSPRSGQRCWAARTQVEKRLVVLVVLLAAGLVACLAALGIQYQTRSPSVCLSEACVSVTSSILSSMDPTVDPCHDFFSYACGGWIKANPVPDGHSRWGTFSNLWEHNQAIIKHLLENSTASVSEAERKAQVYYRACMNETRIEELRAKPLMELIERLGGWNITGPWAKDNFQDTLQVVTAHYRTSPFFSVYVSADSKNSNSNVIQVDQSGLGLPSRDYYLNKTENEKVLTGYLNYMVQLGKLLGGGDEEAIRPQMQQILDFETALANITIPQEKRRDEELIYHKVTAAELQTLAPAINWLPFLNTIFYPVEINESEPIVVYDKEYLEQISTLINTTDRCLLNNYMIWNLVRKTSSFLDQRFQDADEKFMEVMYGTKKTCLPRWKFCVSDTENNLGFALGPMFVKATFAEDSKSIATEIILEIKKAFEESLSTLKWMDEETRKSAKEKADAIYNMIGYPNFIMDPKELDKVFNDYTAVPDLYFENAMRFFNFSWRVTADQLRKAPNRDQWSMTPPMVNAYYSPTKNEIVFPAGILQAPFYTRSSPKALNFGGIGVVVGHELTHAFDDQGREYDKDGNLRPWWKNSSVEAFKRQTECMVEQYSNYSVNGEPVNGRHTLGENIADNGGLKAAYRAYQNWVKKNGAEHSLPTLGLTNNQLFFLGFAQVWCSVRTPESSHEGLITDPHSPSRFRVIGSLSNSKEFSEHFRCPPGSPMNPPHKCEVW

Compared with COc1ccc(C(=O)O)nc1-c1c[nH]cn1, COc1ccc(C(=O)O)nc1-c1nccs1 is 10-fold higher in IC50: 2400 nM for the first, 24000 nM for the second.

Going from COc1cc(C(=O)O)nc(-c2csc(C)n2)c1OC to CNc1nc(-c2nc(C(=O)O)cc(OC)c2OC)cs1, the IC50 rises from 1400 nM to 2600 nM (1.9-fold). The first is the more potent here.

COc1cc(C(=O)O)nc(-c2ccsc2)c1OC and COc1cc(C(=O)O)nc(-c2ccoc2)c1OC cannot be ordered by IC50: > 50000 nM for the first, > 50000 nM for the second.

COc1ccc(C(=O)O)nc1-c1csc(CCc2ccccc2)n1 and COc1ccc(C(=O)O)nc1-c1csc(Cc2ccccc2)n1 are within 1.5-fold of each other in IC50: 980 nM for the first, 860 nM for the second.

COc1ccc(C(=O)O)nc1-c1csc(-c2ccc3ccccc3c2)n1 and COc1ccc(C(=O)O)nc1-c1csc(-c2ccccc2)n1 are within 1.5-fold of each other in IC50: 1500 nM for the first, 1300 nM for the second.

First: COc1ccc(C(=O)O)nc1-c1csc(-c2ccc(-c3ccccc3)cc2)n1
Second: COc1ccc(C(=O)O)nc1-c1csc(C)n1
The IC50 of the first is 7.1-fold higher: 10000 nM for the first, 1400 nM for the second. The second is the more potent here.

Going from Cc1nc(-c2cccc(C(=O)O)n2)cs1 to COc1cc(C(=O)O)nc(-c2cscn2)c1OC, the IC50 falls from 10000 nM to 4300 nM (2.3-fold). The second is the more potent here.

COc1cc(C(=O)O)nc(-c2cccn2C)c1OC was tested, and the IC50 was > 50000 nM.

From ChEMBL document CHEMBL1131368, “Synthesis of novel substituted pyridines as inhibitors of endothelin converting enzyme-1 (ECE-1)” (Bioorg Med Chem Lett, 1998)
